Measurements from US20100216661A1, “Diagnostic Assay” (priority 2007, published 2010).

Tests used:
[1] = system: anti-RhD monoclonal antibody T10 (LHM76/55); experiment: Biopanning of phage-peptide libraries with anti-RhD T10; assay type: binding, Human; conditions: biopanning of phage-peptide libraries with anti-RhD monoclonal T10
From the text: (§1) Three different phage libraries from New England Biolabs. (Ph.D. 7 and Ph.D. 12 displaying linear 7- and 12-mer peptides, respectively and Ph.D. C7C displaying 7-mer peptides constrained by a disulphide bridge at their termini) and a linear 15mer library (kindly provided by Prof. George P. Smith, University of Missouri) were used in biopanning experiments with 10 different monoclonal antibodies and a polyclonal preparation (Table 1).
(§2) For each target antibody/library combination, a separate well of a 96-well Immulon 4 flat-bottomed ELISA plate (Thermo Labsystems) was coated with 5 μg of antibody in 150 μl ELISA coating buffer (15 mM Na2CO3, 35 mM NaHCO3, pH9.6). Plates were sealed and incubated at 4° C. overnight. Unbound antibody was discarded and 350 μl of blocking buffer (0.1M NaHCO3/3% skimmed milk powder) was added to each well. Plates were sealed and incubated for 1 hour at 4° C. The blocking buffer was removed and the wells were washed six times with 300 μl TBS/0.1% Tween 20. Approximately 2×10^11 plaque forming units (pfu) in 100 μl TBS/0.1% Tween 20 were added to each well and the plates were incubated at room temperature for 1 hour. Wells were washed ten times with 300 μl TBS/0.1% Tween 20. Bound phage were eluted by incubation with 100 μl of 0.2M glycine-HCl/BSA, pH2.2 (1 mg/ml) for 10 minutes, then neutralised with 15 μl of 1M Tris-HCL (pH9.1). An aliquot of the Round 1 eluate was removed and titred. The remainder of the eluted phage were amplified by infection of E. coli ER2538 cells for 4.5 hours at 37° C. The cultures were centrifuged for 10 minutes at 10,000 rpm at 4° C. The supernatants were recovered, ⅙ volume PEG/NaCl (20% polyethylene glycol 8000; 2.5M NaCl) added, then incubated overnight at 4° C. The PEG-precipitated phage were centrifuged at 10,000 rpm for 15 minutes at 4° C. The supernatant was removed and the phage pellet resuspended in 200 μl TBS. Two further rounds of panning were undertaken and approximately 2×10^11 pfu of the Round 2 or Round 3 amplified eluates were used as input phage. Round 3 eluates were titrated but not amplified. Individual plaques were amplified and subjected to PCR amplification, prior to DNA sequence analysis. The specificity of peptide-antibody binding was subsequently determined using both phage ELISA and SPOTs techniques.

[2] = system: polyclonal anti-RhD preparation (Human Anti-D Ig); experiment: Biopanning of phage-peptide libraries with polyclonal anti-RhD; assay type: binding; conditions: biopanning of phage-peptide libraries with polyclonal anti-RhD preparation
From the text: as §1, §2

| Substance | Panning Antibody (antibody that selected the phage-peptide in biopanning) [1] | Panning Antibody (antibody that selected the phage-peptide in biopanning) [2] |
| --- | --- | --- |
| RhD 59 (WHWRLYSANTP) | RhD T10 |  |
| RhD 60 (HAAFEPRGDVRHTLL) | RhD T10 |  |
| RhD 61 (SIWDLPLQYRGFGTS) | RhD T10 |  |
| RhD 62 (LWRLRGGSFPVISHG) | RhD T10 |  |
| RhD 63 (RNALHSLRTLSSSWV) | RhD T10 |  |
| RhD 64 (FHRHWWPPTLST) | RhD T10 |  |
| RhD 65 (RPHLLDWELNPV) | RhD T10 |  |
| RhD 66 (FHWRWSTFPEYP) | RhD T10 |  |
| RhD 67 (VWAVSLPWYRYP) | RhD T10 |  |
| RhD 68 (LDTYWYREHFRR) | RhD T10 |  |
| RhD 69 (VHWRWWDQRVPM) | RhD T10 |  |
| RhD 70 (LPWYQLT) | RhD T10 |  |
| RhD 71 (VPWFRAP) | RhD T10 |  |
| RhD 72 (WHPPQPS) | RhD T10 |  |
| RhD 73 (FHENWPS) | RhD T10 |  |
| RhD 74 (FWWQVPA) | RhD T10 |  |
| RhD 75 (TQWYQIA) | RhD T10 |  |
| RhD 76 (LPWFQLP) | RhD T10 |  |
| RhD 77 (TPLSKST) | RhD T10 |  |
| RhD 78 (LPWYATP) | RhD T10 |  |
| RhD 79 (LPWYRH) | RhD T10 |  |
| RhD 80 (IPWYKIT) | RhD T10 |  |
| RhD 81 (FHSTWPWREAEG) |  | RhD |
| RhD 82 (FHANWPQSARDV) |  | RhD |

| Substance | Panning Antibody (antibody that selected the phage-peptide in biopanning) [1] | Panning Antibody (antibody that selected the phage-peptide in biopanning) [2] |
| --- | --- | --- |
| RhD 83 (FHSDWPGQTFTW) |  | RhD |
| RhD 84 (FHENWSTRPTTR) |  | RhD |
| RhD 85 (FHSVYPWREAEG) |  | RhD |
| RhD 86 (FHSNWPSAYTAR) |  | RhD |
| RhD 87 (FHSNWPSLIRAR) |  | RhD |
| RhD 88 (AGYQIGMPNPLL) |  | RhD |
| RhD 89 (FHWRYPLPLPGQ) |  | RhD |
| RhD 90 (SPTSFRQVFGFY) |  | RhD |
| RhD 91 (ALPELSSLPESAR) |  | RhD |
| RhD 92 (LHWWPTYGNNGM) |  | RhD |
| RhD 93 (FHRPYYWPPTPL) |  | RhD |
| RhD 94 (FHWRLPYPLPSS) |  | RhD |
| RhD 95 (IHWWVKSPPPGS) |  | RhD |
| RhD 96 (SHWWTSILATPS) |  | RhD |
| RhD 97 (FHWHLQPQLWSY) |  | RhD |
| RhD 98 (LHREWIYPYLIS) |  | RhD |
| RhD 99 (GQKTHNPFHLHP) |  | RhD |
| RhD 100 (ATWSHHLSSAGL) |  | RhD |
| RhD 101 (FHRHYYPWALIQ) |  | RhD |
| RhD 102 (HSLKHTQMSYSS) |  | RhD |
| RhD 103 (SVSVGMKPSPRP) |  | RhD |
| RhD 104 (WPHQVHKHIYRQ) |  | RhD |
| RhD 105 (APPYPGPLPLSL) |  | RhD |
